In ChEMBL document CHEMBL3507680, “University of Dundee, Gates Library screen for HepG2 cell viability”:

Assay: Human HepG2 cell viability assay in 384 well format
Type: toxicity, cell-based
Design: dose 125 nL, time 70.5 hour; concentration not given beside the values
Settings: HepG2 cells, read-out: Inhibition

Structure (SMILES)	cytotoxicity at 70.5 h [%]
COCC(=O)N1CCCC(C)(c2nncn2C)C1 (centres undefined)	-14.6
OCCN1CCC(Cc2nccs2)CC1	1.19
O=C(N[C@@H]1CN(CCc2ccc(F)cc2)C[C@H]1O)c1cscn1	-6.14
CN(c1ccncn1)C1CC2(CCN(C(=O)c3cccn3C)C2)C1 (centres undefined)	-0.487
Cc1ncsc1CN1CC[C@H](O)[C@@H](n2cnc3c(N)ncnc32)CC1	8.32
CC1CCCCN1c1nc2c(c(=O)[nH]1)CCN(Cc1ccc(O)cc1)C2 (centres undefined)	-8.85
CC1CCCCN1c1nc2c(c(=O)[nH]1)CCN(Cc1ccccc1O)C2 (centres undefined)	-7.53
CN(C)C(=O)CCc1cncc(C2CCCN2Cc2ccccn2)n1 (centres undefined)	-6.05
Cn1ccc(C(=O)N2CCC(Cc3cccc4ncccc34)CC2)n1	-6.71
Cc1cc(N2CCCC(c3n[nH]c4ncccc34)C2)ncn1 (centres undefined)	-4.69
NC(=O)CN1CCCC1c1csc(Nc2cnccn2)n1 (centres undefined)	-9.23
Cn1cc(CN2CCC(c3[nH]ncc3S(C)(=O)=O)C2)cn1 (centres undefined)	-2.27
CN1CCc2nc(C3CCCN(C(=O)CC(C)(C)C)C3)ncc2C1 (centres undefined)	-6.36
Cc1cnccc1CN1CC[C@@](C)(O)[C@H](Oc2cccc(F)c2)C1	-1.49
Cn1cncc1CN1CC[C@](C)(O)[C@@H](Oc2cccc(F)c2)C1	13.9
CO[C@H]1CCN(C(=O)c2ccc3oc(C)cc3c2)C[C@@]12CCCO2	-5.42
Cc1nccc(CN2CC[C@@]3(CCCN3Cc3ccccc3)[C@@H](O)C2)n1	1.99
Cc1cccnc1CN1CC[C@H](Oc2cccc(F)c2)[C@@](C)(O)C1	-0.828
C[C@]1(O)CN(CCO)CC[C@@H]1Oc1cccc(F)c1	-2.99
Cc1ccc(CN2CCCC(c3cncc(C)n3)C2)cn1 (centres undefined)	-2.94
Cc1cnc(CC2COCCN(Cc3nccn3C)C2)cn1 (centres undefined)	-1.89
Cn1ccnc1CC1CCCN(C(=O)Cc2ccccc2)C1 (centres undefined)	-1.68
CC(C)N1CCC(c2cc(C(F)(F)F)n3ccnc3n2)CC1	12.6

Structure (SMILES)	cytotoxicity at 70.5 h [%]
CC(=O)N1CCN([C@@H]2CCC[C@@H](N(C)C(=O)C3CC3)[C@H]2O)CC1	-1.88
CNc1nc(C2CCCN2C(C)=O)nc2c1CN(C1CCCC1)CC2 (centres undefined)	-4.73
Cc1csc(C(=O)N2CCC(O)(CN3CCc4ccccc4C3)C2)c1 (centres undefined)	-3.4
CN(C)S(=O)(=O)N1CCCC1c1cccc(-n2ccnc2)n1 (centres undefined)	-4.96
O=S(=O)(c1ccc(F)cc1)N1CCCCC1c1cc[nH]n1 (centres undefined)	-6.41
O=S(=O)(c1ccccc1F)N1CCCCC1c1cc[nH]n1 (centres undefined)	-5
Cc1cccc(C(=O)N2CCCCC2c2[nH]ncc2S(C)(=O)=O)c1 (centres undefined)	-2.12
CNc1cncc(C2CCCN2C(=O)Cn2c(=O)oc3ccccc32)n1 (centres undefined)	-5.11
O=C1CCCN1CCCC(=O)N1CCCC(Cc2cccnc2)C1 (centres undefined)	-4.43
CNc1cncc(C2CCCN2C(=O)c2ccc3nc(C)[nH]c3c2)n1 (centres undefined)	-3.29
Cc1ncsc1-c1nnc(C2CCN(Cc3ccccc3F)CC2)o1	-0.587
CC(C)c1nccn1-c1cncc(C2CCCN(C3CCCC3)C2)n1 (centres undefined)	19.3
O=C(C1CCCC1)N1CCCC(c2cccc(-n3ccnc3)n2)C1 (centres undefined)	16.6
NC[C@H]1CC[C@H](C(NC(=O)CC2CCCC2)c2ccccn2)CC1 (some centres undefined)	-0.374
CNc1ncccc1CN1CCCCC1c1ccnc(N)n1 (centres undefined)	-3.08
COc1ccccc1C(=O)NC(c1ccccn1)[C@H]1CC[C@H](CN)CC1 (some centres undefined)	-4.28
CN1CCc2nc(C3CCCN(C(=O)CC4CCCCC4)C3)ncc2C1 (centres undefined)	0.186
CN(C)S(=O)(=O)N1CCCC(c2cccc(Cc3ccc(F)cc3)n2)C1 (centres undefined)	3.53
COCCN1CCCC(c2nccnc2Nc2nc(C)cs2)C1 (centres undefined)	-4.96
CC(C)(C)NC(=O)Cn1c(=O)n(Cc2ccco2)c2ncccc21	-3.69
CCc1cc(O)nc(C2CCCN(Cc3ccncc3)C2)n1 (centres undefined)	-1.03
COc1cc2nc3n(c(=O)c2cc1OC)CCN(C(=O)C1CC1)CC3	20
CCN1CCN(Cc2c(-c3ccco3)[nH]c3ncccc23)CC1	-3.87

Structure (SMILES)	cytotoxicity at 70.5 h [%]
Cc1ccc(C(=O)N2CCc3nc4c(C)csc4c(=O)n3CC2)cn1	-4.08
O=C(C1CCCCC1)N1CCC(c2n[nH]c3nccnc23)CC1	-2.95
COCc1cc(O)nc(C2CCCN(Cc3ccc(F)cc3)C2)n1 (centres undefined)	-0.561
COCc1cc(O)nc(C2CCCN(Cc3cccc(OC)c3)C2)n1 (centres undefined)	-1.68
CCn1cc(C(=O)N2CCOC(c3nc(-c4cccs4)no3)C2)cn1 (centres undefined)	-2.41
O=C(N[C@@H]1CN(Cc2ccc(F)c(F)c2)C[C@H]1O)c1cscn1	-5.02
Cc1ccc(C(=O)N2CCC3(CC(N(C)c4ccncn4)C3)C2)cn1 (centres undefined)	-2.36
Cc1noc(C)c1C(=O)N1CCC2(CC(N(C)c3ccncn3)C2)C1 (centres undefined)	-6.65
CC(=O)NC[C@]1(O)CCN(C(=O)c2ccc3c(c2)CCC3)C[C@H]1O	-3.52
CC(=O)N1CCN([C@@H]2CC[C@@H](N(C)C(=O)C3CCCCC3)[C@H]2O)CC1	-5.4
Cc1ncsc1CN1CC[C@](C)(O)[C@@H](Oc2cccc(F)c2)C1	-3.09
CC(=O)NC[C@]1(O)CCN(C(=O)c2ccc3c(c2)OCO3)C[C@H]1O	-4.98
Cc1ncsc1-c1nnc(C2CCN(Cc3cccc(Cl)c3)CC2)o1	-1.29
Cc1ncsc1-c1nnc(C2CCN(Cc3ccccc3Cl)CC2)o1	-0.461
COc1ccc(CN2CCC(c3nnc(-c4scnc4C)o3)CC2)cc1	-3.83
CN(C)[C@@H]1CN(C(=O)COc2cccc(F)c2)C[C@H]1O	-9.79
C[C@]1(O)CN(Cc2ccc(C(=O)O)cc2)CC[C@@H]1Oc1cccc(F)c1	-10.9
CCc1nccn1-c1cccc(C2CCCN2S(=O)(=O)N(C)C)n1 (centres undefined)	-7.54
COCC(=O)N1CCC(c2n[nH]c3nccnc23)CC1	-7.45
CNc1ccc(CC2CCCN(C(=O)c3scnc3C)C2)nn1 (centres undefined)	-5.63
c1cnc(N2CCCC(c3n[nH]c4ncccc34)C2)nc1 (centres undefined)	-4.04
Cc1ncccc1Oc1nccnc1C1CCN(S(C)(=O)=O)CC1	-5.66
CCc1cc(=O)[nH]c(-c2ccc(NC(C)COC)nc2)n1 (centres undefined)	2.74

Structure (SMILES)	cytotoxicity at 70.5 h [%]
O=C(Nc1ccc(-n2ccc(C(=O)O)n2)cc1)c1ccccc1	-1.13
CC(=O)NCC(=O)Nc1cc(C)n(-c2ccc(Cl)cc2Cl)n1	-0.82
O=C(O)c1ccn(-c2ccccc2NC(=O)c2ccccc2Cl)n1	-3.53
CC1CCN(CCNC(=O)c2sccc2C2CC2)CC1	-5.27
Cc1ccc(OCCN(C)C2CCOC2=O)cc1 (centres undefined)	-5.65
OCC1(NCc2cccc(-n3cccn3)c2)CCOCC1	-1.42
COCCN(CCOC)C(=O)c1cnn(C)c1C	-10.4
COCCN(Cc1ccccc1)C(=O)c1cnn(C)c1C	-8.55
O=C(O)c1ccn(-c2cccc(NC(=O)c3ccccc3Cl)c2)n1	-6.97
CCN(CC)C(CNC(=O)c1cccnc1-n1cncn1)c1ccsc1 (centres undefined)	-7.63
COCCOCC1CCN(C(=O)c2ccc3[nH]cnc3c2)C1 (centres undefined)	2.45
Cc1ccccc1NC(=O)CCNC(=O)c1ccoc1	2.88
CN(C)c1ncccc1CNC(=O)CCNc1ncccn1	-9.01
CCC(CNS(=O)(=O)c1cccc(C(=O)OC)c1)N1CCCC1 (centres undefined)	-10.7
CN(Cc1cnn(C)c1)C(=O)Nc1cccnc1-n1cccn1	14.6
Cn1cc(S(=O)(=O)N(Cc2ccc(F)cc2F)C2CC2)cc1C(N)=O	-7.08
CCCN(CC(F)(F)F)S(=O)(=O)c1cc(C(N)=O)n(C)c1	-8.17
COc1ncccc1CNCc1cnc(N2CCOCC2)nc1	-9.23
COC(=O)C1CCN(C(=O)Cn2ccc(-c3ccsc3)n2)CC1	-3.32
Cn1cc(NC(=O)N2CCCC2c2cccnc2)ccc1=O (centres undefined)	-3.14
COC(=O)C1CCN(C(=O)Cn2nc(C)nc2-c2ccccc2)CC1	-2.98
COC(=O)C1(NCC(=O)Nc2cc(C)ccc2OC)CCCCC1	2.15
Cc1noc(OCC(=O)N2CCCCC2C)n1 (centres undefined)	-3.19

Structure (SMILES)	cytotoxicity at 70.5 h [%]
Cc1cnn(CCNCC(=O)N2CCN(c3ccccc3)CC2)c1	21.4
NC(=O)c1cn[nH]c1NC(=O)c1ccc2c(c1)OCO2	1.1
CCOCCC(=O)Nc1cccc(Cl)c1C(N)=O	-0.685
Cn1cc(CC(=O)N2CCCC(c3cc(C(F)(F)F)[nH]n3)C2)cn1 (centres undefined)	15.9
Cn1cnc(S(=O)(=O)N2CCCCc3ccccc32)c1	1.57
CCc1ccc(CC)c(NCc2cnc(N3CCOCC3)nc2)c1	-2.91
Cc1cc(C)n(C2CN(Cc3nc4cc(Cl)ccc4n3C)C2)n1	4.28
CCc1cnc(C(C)NC(=O)N2CCCN(CC(F)F)CC2)s1 (centres undefined)	-4.42
CC(C)(NCCCOc1ccc(C#N)cc1)c1nccs1	-1.99
CN(CCc1ccccn1)CCc1nccs1	-8.22
Cc1ccc(C(C)NC(=O)N2CCCN(CC(F)F)CC2)s1 (centres undefined)	-2.75
CCC(C)C(=O)N(CC(=O)OC)c1cccc(C)n1 (centres undefined)	2.47
CC(CNC(=O)NCc1ccoc1)N1CCc2sccc2C1 (centres undefined)	6.45
CC(Cn1cccn1)NC(=O)CCc1nc(C(C)(C)C)no1 (centres undefined)	-2.44
c1ncc(-c2ccc(C3CNCCO3)nc2)cn1 (centres undefined)	-3.27
Cc1nc(-c2cncnc2C2CCCNC2)no1 (centres undefined)	26.9
Cc1cc(C[C@@H]2CCC[C@H]2NCc2ccccc2F)on1	-2.37
COc1ccc(CN2CCC(c3cc(O)nc(C)n3)C2)c(OC)c1 (centres undefined)	-3.26
CN(C)CCN(C)C(=O)Cc1ccc2c(c1)OCCO2	0.0835
Cc1nc(O)cc(C2CCN(Cc3ccc(F)c(F)c3)C2)n1 (centres undefined)	-5.53
Cc1cccc(CN(Cc2cccnc2)C2CC(C)(C)NC(C)(C)C2)n1	-1.41
CNc1nc(C2CCCN2C(C)=O)nc2c1CN(CCO)CC2 (centres undefined)	-3.16
